From article PMC10828244, “Covalently Binding Adenosine A3 Receptor Agonist ICBM Irreversibly Reduces Voltage-Gated Ca^2+ Currents in Dorsal Root Ganglion Neurons” (Purinergic Signalling, 2023)

Tests used:
[1] = target: T1, adenosine A3 receptor (A3AR) (Rattus norvegicus, UniProt P28647); assay: whole-cell patch clamp of Ca2+ currents in rat DRG neurons; washout, MRS1523 block and occlusion of Cl-IB-MECA; format: cell-based
T1 construct: gene Adora3; native receptor in isolated rat DRG neurons
T1 sequence (P28647 1-320): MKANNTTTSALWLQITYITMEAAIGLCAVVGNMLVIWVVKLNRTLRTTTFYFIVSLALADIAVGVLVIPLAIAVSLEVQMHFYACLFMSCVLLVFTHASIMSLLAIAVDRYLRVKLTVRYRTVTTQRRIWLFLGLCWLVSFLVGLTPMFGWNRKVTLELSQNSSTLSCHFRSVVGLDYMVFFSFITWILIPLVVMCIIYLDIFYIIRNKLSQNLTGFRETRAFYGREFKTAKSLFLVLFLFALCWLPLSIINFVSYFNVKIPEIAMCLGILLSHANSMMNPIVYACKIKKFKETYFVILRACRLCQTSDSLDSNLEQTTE

[2] = target: T1, adenosine A3 receptor (A3AR); assay: whole-cell patch clamp of Ca2+ currents in rat DRG neurons ([…]); effect occluded by ICBM pre-incubation; format: cell-based

Row | Compound | EC50 [1] | whole-cell patch clamp of Ca2+ currents in rat DRG neurons (30 nM); effect occlu [2]
1 | CNC(=O)[C@H]1O[C@@H](n2cnc3c(NCc4cccc(N=C=S)c4)ncnc32)[C@H](O)[C@@H]1O [ICBM, N^6-(3-Isothiocyanatobenzyl)-5′-N-methylcarboxamidoadenosine] | 11.7 nM | –
2 | CNC(=O)[C@H]1O[C@@H](n2cnc3c(NCc4cccc(I)c4)nc(Cl)nc32)[C@H](O)[C@@H]1O [Cl-IB-MECA, 2-Chloro-N^6-(3-iodobenzyl)-adenosine-5′-N-methyluronamide] | – | the prototypical A3AR agonist, Cl-IB-MECA, significantly decreases ICa (Fig. 2A–B) in these cells
